The source of these data is PMC10952710 (2023).

Each structure is given as a SMILES string.

For assay [1], the system named is synthetic neomycin-sensing riboswitch, 2FA-labeled (RNA, riboswitch, 2-fluoroadenine at 16, 17 and 24) GGCUGCUUGUCCUUUAAUGGUCCAGCC
Kind of assay: ITC. The note with it: 200 mM NaCl, 10 mM MgCl2, 20 mM Na-cacodylate, 1 mM spermidine, pH 6.8, 37 °C, one-site model.

For assay [2] the test system is unchanged. In words: 19F NMR titration. The conditions noted are these: 303 K; saturating ligand; 215-1200 µM RNA, 1-1.5 equivalents ligand.

A word on the KD: it is the concentration at which binding is half-saturated. In assay [1] (30 µM RNA, 300 µM ligand), `NC[C@@H]1O[C@H](O[C@H]2[C@@H](O)[C@H](O[C@@H]3[C@@H](O)[C@H](N)C[C@H](N)[C@H]3O[C@H]3O[C@H](CO)[C@@H](O)[C@H](O)[C@H]3N)O[C@@H]2CO)[C@H](N)[C@@H](O)[C@@H]1O` displayed a KD of 5.7 ± 3.8 µM.

In the case of `NC[C@H]1O[C@H](O[C@H]2[C@H](O[C@@H]3O[C@H](CO)[C@@H](O)[C@H]3O)[C@@H](O)[C@H](N)C[C@@H]2N)[C@H](N)[C@@H](O)[C@@H]1O`, the KD in assay [1] (10 µM RNA, 100 µM ligand) amounted to 0.356 ± 0.019 µM.

As for `NC[C@@H]1O[C@H](O[C@H]2[C@@H](O)[C@H](O[C@@H]3[C@@H](O)[C@H](N)C[C@H](N)[C@H]3O[C@H]3O[C@H](CN)[C@@H](O)[C@H](O)[C@H]3N)O[C@@H]2CO)[C@H](N)[C@@H](O)[C@@H]1O`, in assay [2], the binding entry is “yes”.
